Data set [1] can be described thus: Metabolic Stability in Guinea Pig Liver S9. The class given is in vitro ADME. Conditions: guinea pig liver S9, 10 μM initial, 37° C. As to the method: (§1) Evaluation of metabolism in human and guinea pig liver
(§2) One skilled in the art can determine the metabolic stability for the compounds of the present invention by determining the rate of disappearance of the test compound in vitro in liver extracts. Metabolic stability is inversely related to the rate of metabolism which can be evaluated by determining the rate of disappearance of the test compounds during the initial linear phase of this assay.
(§3) This method is carried out using either S9 or S10 liver supernatant obtained from either guinea pig or human liver. Guinea pig liver S9 can be purchased from Vitro Technologies, Baltimore, Md. and human liver S9 can be purchased from IIAM, Eaton Pa. Both guinea pig and human S10 supernatant can be prepared as follows: Combine weighed liver (fresh or stored at -80° C. until use) and 1.15% aqueous potassium chloride solution (10-15 mL) and homogenize using a PCU Poltron from Kinematics of Switzerland or equivalent. Combine the homogenate with 1.15% aqueous potassium chloride solution, sufficient so that 3 mL of solution (total) is used per […] of liver, and mix. Store the above homogenate on ice at all times prior to use and at -80° C. for long term storage.
(§4) Centrifuge a 20 mL volume of the homogenate at 12,500 rpm (10,000×gravity) at 3° C. After 20 minutes, remove the cover of white lipid protein, if present, and transfer the supernatant to a clean centrifuge tube. Centrifuge the supernatant at 12,500 (10,000×gravity) at 3° C. for 20 minutes before transfer to a clean storage vessel to give the S10 supernatant. Store the S10 supernatant on ice or at -80° C. for long term storage.
(§5) Prepare a stock solution of each test compound in methanol, such that 0.1 mL of the stock solution when spiked into 16 mL of incubation mixture yields an initial concentration of 10 μM of the test compound. Using this method the methanol content of the final incubation mixture will not exceed 1%.
(§6) Prepare the incubation mixture by combining in an incubation beaker S9 or S10 supernatant (4 mL); an aqueous solution containing 1.1 mM NADP, […] (4 units/2 mL)(0.32 mL); and an aqueous 0.1M dipotassium monohydrogen phosphate solution (7.58 mL). Incubate the test compound by adding 0.1 mL of the stock solution of test compound to an incubation mixture, placed in a shaking water bath at 37° C.
(§7) To determine the rate of disappearance of test compounds in this assay, remove triplicate aliquots (0.5 mL) from the incubation beaker at 1, 3, 5, 10, 15, 30, and 60 minutes. Freeze all aliquots in a hexane/dry-ice slurry to instantly deactivate the enzymes. Store at -70° C. until assayed. The concentration of test compound in each aliquot is determined by HPLC after preparation and as compared to a standard concentration of test compound, such preparations and determinations are well known and appreciated in the art. The rate of disappearance can be determined from the slope of the initial linear phase of this assay by graphing the change in concentration of test compound vs. time.
(§8) Calibration standards for Compound A were prepared as follows: dissolve 10 mg of Compound A (free base) in methanol (10 mL) to give a 1 mg/mL stock solution. Use acetonitrile to dilute 1 mL of stock solution to 10 mL to give a 100 μg/mL spiking standard and serially dilute the 100 μg/mL solution with acetonitrile to give spiking standards having concentrations of 50, 25, 10, 5, 2.5, and 1.0 μg/mL. Calibration standards having concentrations of 10,000; 5,000; 2,500; 1,000; 500; 250; and 100 ng/mL are prepared in duplicated by adding 20 μL of each spiking standards to 0.2 mL of control S9 supernatant. Blanks and samples each receive 20μL of acetonitrile. […]

A short description of data set [2]: Metabolic Stability in Human Liver S9. The class given is in vitro ADME. Conditions: human liver S9, 10 μM initial, 37° C. The method, then: as §1, §2, §3, §4, §5, §6, §7, §8

As for `COc1cc(C(=O)N2CCC(CCN3CCC(C(N)=O)(c4ccccc4)CC3)(c3ccc(Cl)c(Cl)c3)C2)cc(OC)c1OC.Cl` (single isomer, unassigned; (+)) [Compound C, (+)-1-(2-(3-(3,4-dichloro-phenyl)-1-(3,4,5-trimethoxy-benzoyl)-pyrrolidin-3-yl)-ethyl)-4-phenyl-piperidine-4-carboxylic acid amide hydrochloride], the concentration in data set [1] (1 min) was determined as 6.3 µg/mL; in data set [1] (3 min), 6.0 µg/mL; in data set [1] (5 min), 5.3 µg/mL; in data set [1] (10 min), 4.8 µg/mL; in data set [1] (15 min), 4.0 µg/mL; in data set [1] (30 min), 3.8 µg/mL. The concentration in data set [1] (60 min) worked out at 3.5 µg/mL; in data set [2] (1 min), 6.2 µg/mL; in data set [2] (3 min), 5.6 µg/mL; in data set [2] (5 min) it was 5.9 µg/mL; in data set [2] (10 min) it was 5.2 µg/mL; in data set [2] (15 min), 4.5 µg/mL. For the same compound, the concentration was 3.2 µg/mL in data set [2] (30 min) and 2.5 µg/mL in data set [2] (60 min).

Source of the values: patent US5861417A, “Heterocyclic substituted pyrrolidine amide derivatives” (Hoechst Marion Roussel, Inc., priority 1997, dated 1999).
